Source: patent US6635621B1, “Cysteine protease inhibitors” (Naeja Pharmaceutical Inc., priority 1999, dated 2003)

Assays:
[1] = biological target: T1, cathepsin K (Homo sapiens, UniProt P43235); test: In vitro assay for inhibition of cathepsin K; assay type: biochemical; conditions: r cathepsin K, substrate N-CBZ-Phe-Arg-AMC, pH 5.5, 10 min incubation at room temperature
T1 sequence (P43235 115-329): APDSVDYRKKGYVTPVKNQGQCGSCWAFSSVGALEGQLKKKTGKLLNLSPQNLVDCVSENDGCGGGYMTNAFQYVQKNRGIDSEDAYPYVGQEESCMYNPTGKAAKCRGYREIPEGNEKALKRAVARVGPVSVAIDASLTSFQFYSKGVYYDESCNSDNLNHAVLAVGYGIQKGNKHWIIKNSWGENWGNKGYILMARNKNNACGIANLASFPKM
Description: In Vitro Assay Procedure for Cathepsin K
(§1) To a 170 μl of enzyme-buffer mixture (enzyme: r cathepsin K, diluted to give approximate 30 F units/min, buffer: 100 mM sodium acetate, 5 mM EDTA, 20 mM L-cysteine, 0.01% Brij, pH 5.5) a 10 μL of inhibitor (dissolved in DMSO) was added. After 10 min of incubation at room temperature, a 20 μl of 2.7 mM substrate (N-CBZ-Phe-Arg-AMC, dissolved in DMSO) was added to initiate reaction. Reading is followed up for 10 min at the fluoroscan II plate reader (excitation at 380 nm emission at 460 nm).
(§2) A plot of percentage of inhibition vs inhibitor concentration is obtained, and IC50 is determined using a linear regression calculations (concentration of inhibitor which will give 50% inhibition).

[2] = biological target: cathepsin S (Homo sapiens, UniProt P25774); test: In vitro assay for inhibition of cathepsin S; assay type: biochemical; conditions: r cathepsin S, substrate N-CBZ-Val-Val-Arg-AMC, pH 6.5, 10 min incubation at room temperature
Description: In Vitro Assay Procedure for Cathepsin S
as §1, with “S,” for “K,”, “phosphate, 1 mM EDTA,” for “acetate,”, “DTT,” for “EDTA, 20 mM L-cysteine,”, “6.5)” for “5.5)”, “1.2” for “2.7”, “(N-CBZ-Val-Val-Arg-AMC,” for “(N-CBZ-Phe-Arg-AMC,”
as §2

[3] = biological target: rat cathepsin L (Rattus norvegicus, UniProt P07154); test: In vitro assay for inhibition of cathepsin L; assay type: biochemical; conditions: r rat cathepsin L, substrate N-CBZ-Phe-Arg-AMC, pH 5.0, 10 min incubation at room temperature
Description: In Vitro Assay Procedure for Cathepsin L
To a 170 μl of enzyme-buffer mixture (enzyme: r rat cathepsin L, diluted to give approximate 15 F units/min, buffer: 58.8 mM sodium citrate, 1.18 mM EDTA, 235 mM sodium chloride, 5 mM […], pH 5.0) a 10 μL of inhibitor (dissolved in DMSO) was added. After 10 min of incubation at room temperature, a 20 μl of 1 mM substrate (N-CBZ-Phe-Arg-AMC, dissolved in DMSO) was added to initiate reaction. Reading is followed up for 10 min at the fluoroscan reader (excitation at 380 nm emission at 460 nm).
as §2

[4] = biological target: rat cathepsin B (Rattus norvegicus, UniProt P00787); test: In vitro assay for inhibition of cathepsin B; assay type: biochemical; conditions: r rat cathepsin B, substrate N-CBZ-Phe-Arg-AMC, pH 5.1, 10 min incubation at room temperature
Description: In Vitro Assay Procedure for Cathepsin B
The compounds of formula I were tested for inhibition of cathepsin B using the known method (A. J. Barret et al., Biochem. J. 1982, 201, 189-198). To a 170 μl of enzyme-buffer mixture (enzyme: r rat cathepsin B, diluted to give approximate 10 F units/min, buffer: 56 mM sodium acetate, 1.124 mM EDTA, 10 mM DTT, pH 5.1) a 10 μL of inhibitor (dissolved in DMSO) was added. After 10 min of incubation at room temperature, a 20 μl of 5 mM substrate (N-CBZ-Phe-Arg-AMC, dissolved in DMSO) was added to initiate reaction. Reading is followed up for 10 min at the fluoroscan reader (excitation at 380 nm emission at 460 nm).
as §2

cathepsin S, sequence (P25774 115-331, species assumed): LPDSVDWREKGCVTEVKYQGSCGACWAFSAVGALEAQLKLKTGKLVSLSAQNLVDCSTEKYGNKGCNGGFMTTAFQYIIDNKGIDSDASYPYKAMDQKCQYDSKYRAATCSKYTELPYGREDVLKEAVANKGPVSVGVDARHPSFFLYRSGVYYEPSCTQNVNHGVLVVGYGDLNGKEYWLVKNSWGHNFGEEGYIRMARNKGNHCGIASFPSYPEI
rat cathepsin L, sequence (P07154 114-334): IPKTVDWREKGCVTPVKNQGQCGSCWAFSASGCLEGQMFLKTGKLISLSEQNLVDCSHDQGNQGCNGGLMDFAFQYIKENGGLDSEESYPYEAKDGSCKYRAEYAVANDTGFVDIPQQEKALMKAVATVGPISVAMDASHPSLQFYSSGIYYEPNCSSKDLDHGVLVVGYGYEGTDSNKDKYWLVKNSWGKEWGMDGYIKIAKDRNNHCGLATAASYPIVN
rat cathepsin B, sequence (P00787 80-333): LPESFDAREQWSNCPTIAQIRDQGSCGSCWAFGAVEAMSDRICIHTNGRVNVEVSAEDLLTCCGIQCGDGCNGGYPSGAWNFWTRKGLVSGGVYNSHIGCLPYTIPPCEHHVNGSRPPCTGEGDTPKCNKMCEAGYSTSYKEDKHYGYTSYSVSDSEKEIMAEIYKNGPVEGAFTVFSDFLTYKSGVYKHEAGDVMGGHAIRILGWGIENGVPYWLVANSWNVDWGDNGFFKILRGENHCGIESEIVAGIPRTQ

| Structure (SMILES) | IC50 [1] [µM] | IC50 [2] [µM] | IC50 [3] [µM] | IC50 [4] [µM] | melting point [°C] |
| --- | --- | --- | --- | --- | --- |
| NC=C(NC(=O)[C@H](CC1CCCCC1)NC(=O)OCc1ccccc1)C(N)=O [Example 2, 2-(2S-2-Benzyloxycarbonylamino-2-cyclohexylmethyl-acetamido)-3-amino-acrylamide] | 1.78 | 0.026 | 0.072 | 1.17 | 80 to 85 |
| CC(C)C[C@H](NC(=O)OCc1ccccc1)C(=O)NC(=CN)C(N)=O [Example 1, 2-(2S-2-Benzyloxycarbonylamino-2-isopropylmethyl-acetamido)-3-amino-acrylamide] | 0.011 | 0.069 | 0.094 | 4.35 | 80 to 90 |
| CC(C)C[C@H](NC(=O)OCc1ccccc1)C(=O)NC(=CN1CCOCC1)C(N)=O [Example 6, 2-(2S-2-Benzyloxycarbonylamino-2-isopropylmethyl-acetamido)-3-(morpholin-4-yl)-acrylamide] | 0.003 | 0.05 | 0.075 | 0.37 | 120 to 130 |
| NC=C(NC(=O)[C@H](Cc1ccccc1)NC(=O)CCc1ccccc1)C(N)=O [Example 4, 2-[2S-2-(3-Phenylpropionoyl)amino-2-benzyl-acetamido]-3-amino-acrylamide] | 1.2 | 0.0087 | 0.015 | 2.63 | 75 to 80 |
| NC(=O)C(NC(=O)[C@H](Cc1ccccc1)NC(=O)CCc1ccccc1)C(O)O (stereo partly drawn) [Example 14, 2-[2S-2-(3-Phenylpropionoylamino)-2-benzyl-acetamido]-3,3-dihydroxy-propionamide] | 1.13 | 0.004 | 0.004 | 0.98 | 105 to 110 |
| CC(=O)N/C=C(/NC(=O)[C@H](CC1CCCCC1)NC(=O)OCc1ccccc1)C(N)=O [Example 19a, (2E)-(2S-2-Benzyloxycarbonylamino-2-cyclohexymethyl-acetamido)-3-acetamido-acrylamide] | > 58 | 1.86 | > 58 | > 58 | 140 to 142 |
| CC(C)C[C@H](NC(=O)OCc1ccccc1)C(=O)N/C(=C\N1CCC(NC(=O)OC(C)(C)C)C1)C(N)=O (stereo partly drawn) [Example 18, 2-(2S-2-Benzyloxycarbonylamino-2-isopropylmethyl-acetamido)-3-(3-tert-butoxycarbonylamino-pyrrolidino)-acrylamide] | 0.0096 | 0.039 | 0.12 | 1.9 | 140 to 142 |
| CC(C)C[C@H](NC(=O)OCc1ccccc1)C(=O)NC(=CNc1ccccc1)C(N)=O [Example 8, 2-(2S-2-Benzyloxycarbonylamino-2-isoproplmethyl-acetamido)-3-phenylamino-acrylamide] | 0.33 | 6.9 | 2.36 | 37.1 | 199 to 200 |
| CC(C)C[C@H](NC(=O)OCc1ccccc1)C(=O)NC(=CNCc1ccccc1)C(N)=O [Example 5, 2-(2S-2-Benzyloxycarbonylamino-2-isopropylmethyl-acetamido)-3-benzylamino-acrylamide] | 0.0031 | 0.061 | 0.064 | 2.28 | 115 to 120 |
| CC(C)C[C@H](NC(=O)OCc1ccccc1)C(=O)NC(C(N)=O)C(O)O (stereo partly drawn) [Example 11, 2-(2S-2-Benzyloxycarbonylamino-2-isopropylmethyl-acetamido)-3,3-dihydroxy-propionamide] | 0.014 | 0.015 | 0.11 | 2.4 | 86 to 90 |
| NC=C(NC(=O)[C@H](Cc1ccccc1)NC(=O)OCc1ccccc1)C(N)=O [Example 3, 2-(2S-2-Benzyloxycarbonylamino-2-benzyl-acetamido)-3-amino-acrylamide] | 0.23 | 0.26 | 0.0055 | 1.42 | 127 to 135 |
| CC(C)C[C@H](NC(=O)OCc1ccccc1)C(=O)N/C(=C/O)C(N)=O [Example 15, 2-(2S-2-Benzyloxycarbonylamino-2-isopropylmethyl-acetamido)-3-hydroxy-acrylamide] | 0.018 | 0.075 | 0.17 | 9.5 | 105 to 115 |
| CC(C)C[C@H](NC(=O)OCc1ccccc1)C(=O)NC(=CNCCO)C(N)=O [Example 7, 2-(2S-2-Benzyloxycarbonylamnino-2-isopropylmnethyl-acetamido)-3-(2-hydroxyethylamnino)-acrylamide] | 0.012 | 0.18 | 0.23 | 1.96 | 89 to 92 |
| CC(=O)N/C=C(/NC(=O)[C@H](CC(C)C)NC(=O)OCc1ccccc1)C(N)=O [Example 10a, (2E)-(2S-2-Benzyloxycarbonylamino-2-isopropylmethyl-acetamido)-3-acetamido-acrylamide] | 1.42 | 0.013 | 8.62 | 45.2 | 73 to 76 |
